Reference: PubChem BioAssay (NCI)
Values joined by “and” are separate entries in the source; they are usually repeats but may differ in a detail not shown here. Equal entries are not always repeated.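 Step 1: Grow cells in 96-well plates. Step 2: Expose to compound for 48 hours at 5 concentrations. Step 3: Interpolate endpoints linearly; if unreached, use highest concentration. Here, GI50 denotes the concentration required for 50% inhibition of growth. TGI marks complete inhibition of growth.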

Tests used:
Assay in all cases: NCI anticancer screen, dose series, 48 h
CCRF-CEM leukemia = tested on: CCRF-CEM leukemia
HOP-92 NSCLC = tested on: HOP-92 NSCLC
K-562 leukemia = tested on: K-562 leukemia
KM12 colon = tested on: KM12 colon
LOX IMVI melanoma = tested on: LOX IMVI melanoma
MALME-3M melanoma = tested on: MALME-3M melanoma
NCI-H23 lung = tested on: NCI-H23 lung
NCI-H460 lung = tested on: NCI-H460 lung
SW-620 colon = tested on: SW-620 colon
U251 CNS = tested on: U251 CNS

Structure (SMILES)	GI50 (CCRF-CEM leukemia)	TGI (CCRF-CEM leukemia)	GI50 (HOP-92 NSCLC)	TGI (HOP-92 NSCLC)	GI50 (K-562 leukemia)	TGI (K-562 leukemia)	GI50 (KM12 colon)	TGI (KM12 colon)	GI50 (LOX IMVI melanoma)	TGI (LOX IMVI melanoma)	GI50 (MALME-3M melanoma)	TGI (MALME-3M melanoma)	GI50 (NCI-H23 lung)	TGI (NCI-H23 lung)	GI50 (NCI-H460 lung)	TGI (NCI-H460 lung)	GI50 (SW-620 colon)	TGI (SW-620 colon)	GI50 (U251 CNS)	TGI (U251 CNS)
O=C(CCl)N1c2ccccc2Sc2c1ccc1ccccc21	696 nM	36.6 µM	1040 nM	5.32 µM	2980 nM	13 µM	6.31 µM	20.1 µM	1120 nM	2.42 µM	2.75 µM	7 µM	2.2 µM	5.11 µM	2110 nM	4.34 µM	1660 nM	3.68 µM	1650 nM	3.13 µM
CN(C)c1ccc2cc(-c3ccccc3F)c(N)nc2c1	2040 nM	43.7 µM	1400 nM	9.7 µM	393 nM	16.6 µM	0.89 µM	14.9 µM	2690 nM	15.1 µM	1.71 µM	15.9 µM	2.89 µM	15.7 µM	2020 nM	13.2 µM	636 nM	17.2 µM	1240 nM	12.7 µM
NNC(=O)CCC(=O)NC1C2CC3CC(C2)CC1C3 (stereo not given)	–	> 100 µM	–	> 100 µM	–	> 100 µM	–	> 100 µM	–	> 100 µM	–	> 100 µM	–	> 100 µM	–	> 100 µM	–	> 100 µM	–	> 100 µM
COc1ccc(-c2cn(-c3ccccc3)c(-c3ccccc3)n2)cc1OC	2160 nM	5.98 µM	1820 nM	10.8 µM	3210 nM	> 100 µM	2.4 µM	6.41 µM	3080 nM	11.7 µM	9.17 µM	22.7 µM	5.51 µM	25 µM	3570 nM	14.9 µM	3690 nM	18.5 µM	2460 nM	10.6 µM
COc1cc(/C=C/C(=O)c2sc(Nc3ccccc3)nc2C)ccc1O	–	> 100 µM	–	> 100 µM	–	> 100 µM	–	> 100 µM	–	> 100 µM	–	> 100 µM	–	> 100 µM	–	> 100 µM	–	> 100 µM	–	> 100 µM
CC[C@H](CC#N)OC(=O)N[C@@H](C)c1cccc(NC(=O)Nc2ccc(-c3cnco3)c(OC)c2)c1	< 23 nM	35.8 µM	2460 nM	44.7 µM	26.3 nM	> 52.6 µM	0.0715 µM	18.1 µM	24.2 nM	24.8 µM	0.161 µM	31.2 µM	0.16 µM	43.2 µM	32.8 nM	17.1 µM	22.9 nM	40.6 µM	40.6 nM	44.8 µM
CCCCCCCCCc1cc(=O)c2ccc(O)cc2o1	–	55.2 µM	–	64.6 µM	–	> 100 µM	–	> 100 µM	–	> 100 µM	–	> 100 µM	–	> 100 µM	–	> 100 µM	–	> 100 µM	–	> 100 µM
CN(C)CCCN1CCc2c([nH]c3ccccc23)C1c1cccnc1 (stereo not given)	–	> 100 µM	–	> 100 µM	–	> 100 µM	–	> 100 µM	–	> 100 µM	–	> 100 µM	–	> 100 µM	–	> 100 µM	–	> 100 µM	–	> 100 µM
Clc1nc(Cl)c2ncn(Cc3ccc(COc4cccc(OCc5ccc(Cn6cnc7c(Cl)nc(Cl)nc76)cc5)c4)cc3)c2n1	17200 nM	> 100 µM	36200 nM	> 100 µM	25900 nM	> 100 µM	58.2 µM	> 100 µM	2470 nM	12.7 µM	73.1 µM	> 100 µM	71.4 µM	> 100 µM	> 100000 nM	> 100 µM	> 100000 nM	> 100 µM	19800 nM	> 100 µM
CN(C)CCOc1ccc2c(c1)C/C(=C/c1ncc([N+](=O)[O-])n1C)C2=O	–	15.1 µM	–	5.77 µM	–	> 20 µM	–	11.6 µM	–	14.4 µM	–	5.23 µM	–	4.94 µM	–	4.05 µM	–	18.2 µM	–	20.5 µM
Cc1cc(C(C#N)c2ccc(Cl)cc2)c(Cl)cc1NC(=O)c1cc(I)cc(I)c1O (stereo not given)	3870 nM and 17800 nM	17 µM and 47.1 µM	1470 nM	4.65 µM	15500 nM	47.5 µM	13.7 µM and 15.9 µM	29.8 µM and 30.5 µM	10400 nM and 16700 nM	26.1 µM and 35.5 µM	4.93 µM and 10.4 µM	20.2 µM and 27.5 µM	6.2 µM and 14.6 µM	21 µM and 37.3 µM	4870 nM and 19500 nM	28.5 µM and 46.3 µM	6910 nM and 16700 nM	22.6 µM and 34.6 µM	6100 nM and 16000 nM	33.4 µM and 38.2 µM
Cc1cc(=O)oc2cc3c(cc12)Oc1ccccc1O3	–	> 10 µM	–	> 100 µM	–	> 10 µM	–	> 100 µM	–	> 100 µM	–	> 100 µM	–	> 100 µM	–	> 100 µM	–	> 100 µM	–	> 100 µM
Cc1nc2sc(C(=O)Nc3ccccc3)c(N)c2cc1C(=O)/C=C/c1ccccc1	2220 nM	> 100 µM	2070 nM	7.07 µM	2410 nM	17 µM	1.73 µM	3.38 µM	1680 nM	3.13 µM	2.35 µM	7.71 µM	2.2 µM	5.44 µM	1960 nM	4.15 µM	1740 nM	4.49 µM	1710 nM	3.16 µM
CCCCCCCCCCCCCCCC(=O)OCC1OC(n2c(O)c(N=NC(N)=S)c3ccc([N+](=O)[O-])cc32)C(OC(C)=O)C1OC(C)=O (stereo not given)	–	> 100 µM	–	> 100 µM	–	> 100 µM	–	> 100 µM	–	> 100 µM	–	> 100 µM	–	> 100 µM	–	> 100 µM	–	> 100 µM	–	> 100 µM
Oc1ccc(CCCCCCc2ccc(O)cc2)cc1	47.1 nM	32.8 µM	6990 nM	20.5 µM	6810 nM	> 75.1 µM	6.54 µM	19.8 µM	1500 nM	17.9 µM	13.3 µM	29.6 µM	7.5 µM	21.5 µM	5880 nM	18.9 µM	7290 nM	20.5 µM	5610 nM	19.8 µM
COc1ccc(NC(=O)c2cc(OC)c(OC)c(OC)c2)cc1	–	> 100 µM	–	> 100 µM	–	> 100 µM	–	> 100 µM	–	> 100 µM	–	97.7 µM	–	> 91.9 µM	–	> 100 µM	–	> 100 µM	–	> 100 µM
O=C(CN1CCN(c2ccccc2)CC1)N1CCc2c([nH]c3ccccc23)C1c1cccnc1 (stereo not given)	–	> 100 µM	–	> 66.3 µM	–	> 100 µM	–	> 100 µM	–	> 100 µM	–	> 100 µM	–	> 85.3 µM	–	> 100 µM	–	> 100 µM	–	42.2 µM
CC(=O)O[C@@H]1CC2C(C)(C)CCCC2(C)C2=C1C(=O)C(C(C)C)=CC2=O (stereo not given in full)	2790 nM	> 100 µM	652 nM	2.1 µM	1690 nM	> 100 µM	1.14 µM	2.68 µM	1590 nM	3.48 µM	0.784 µM	4.8 µM	1.87 µM	7.86 µM	423 nM	1.9 µM	1190 nM	3.28 µM	2350 nM	> 100 µM
COc1cccc(C2c3cc4c(cc3OC(O)(CO)C2C(=O)O)OCO4)c1 (stereo not given) (tested in a mixture with another compound)	–	> 100 µM	–	79.9 µM	–	> 100 µM	–	> 100 µM	–	> 100 µM	–	> 100 µM	–	> 100 µM	–	49 µM	–	> 100 µM	–	62.2 µM
CC(C)CC1=[N+]=C(NC#N)N=C(CCC(=O)Nc2ccccc2[N+](=O)[O-])C1	–	> 100 µM	–	> 100 µM	–	> 100 µM	–	> 100 µM	–	> 100 µM	–	> 100 µM	–	> 100 µM	–	> 100 µM	–	> 100 µM	–	> 100 µM
CCCCCCCCCCCCCC(=O)CBr	–	2.6 µM	–	6.43 µM	–	17.4 µM	–	16.9 µM	–	23 µM	–	23.6 µM	–	23 µM	–	35.3 µM	–	30.2 µM	–	28.8 µM
